# Laboratory results: PMC9101373, “Design of DNA Intercalators Based on 4-Carboranyl-1,8-Naphthalimides: Investigation of Their DNA-Binding Ability and Anticancer Activity” (International Journal of Molecular Sciences, 2022)
# Legend:
# calf thymus DNA (ct-DNA) = experiment: UV–vis absorption titration with ct-DNA, binding constant Kb; settings: 10 µM compound, ct-DNA 1.25–15 µM
# Text: The interaction of 1,8-naphthalimides bearing carborane clusters with ct-DNA was also studied by UV–vis absorption titration to better understand the mode of interaction and binding strength. For compounds interacting with DNA by intercalation, bathochromic and hypochromic effects are observed in the absorption spectra. The spectral changes observed in the electronic absorption of 6–11, 16–19, 36–43, and 54–61 in the absence and presence of ct-DNA are illustrated in Figures S271–S296 (ESI). Progressive addition of ct-DNA at the concentration of 1.25–15 µM to a fixed amount of modified naphthalic anhydride or naphthalimide (10 µM concentration) decreased absorbance for almost all the tested modified conjugates, except conjugates 14, 15, and 22–27 for which changes in absorbance were not observed. […] Hypochromicity (10–56%) was also observed for all conjugates, with the highest value for compound 40.
# To compare the DNA-binding strength of the tested conjugates, we calculated the binding constant Kb, as described in the Materials and Methods section. […] For conjugates 14, 15, and 22–27, the Kb value could not be determined due to the lack of noticeable changes in the UV spectra.
# The measurements were performed by adding aliquots of DMSO stock solution of the tested compounds to the buffer solution (pH 7.4, 20 mM, 50 mM NaCl, Tris-HCl buffer, DMSO content of the final solutions = 0.40–0.61%) to the final concentration of 10 µM. The tested compounds were incubated 5 min, with increasing concentrations ranging from 0 to 15 µM of ct-DNA at 37 °C, then the UV–vis absorption spectra, between 310 and 500 nm (310–550 nm for compounds 36–43 and 54–61), were recorded using a GBC Cintra10 UV–vis spectrometer (Dandenong, Australia) equipped with a GBC Thermocell Peltier Power Supply (Dandenong, Australia) using a 1 cm path length cell. The binding constant was calculated according to the following equation [53]: A0/A−A0=εG/εH−G−εG +εG/εH−G−εG ×1/Kb[DNA] where Kb is the binding constant, A0 and A are the absorbance of the free tested compound, and the apparent one, εG and εH−G are their coefficient, respectively, and [DNA] is the concentration of [DNA] in the base pair. The slope to intercept ratio of the plot between A0/A − A0 versus 1/[DNA] yielded the binding constant.
# HepG2 cells = experiment: Oxidative stress (ROS) measurement by flow cytometry, CellROX Deep Red; format: cell-based, human; settings: HepG2, 24 h at total IC50
# Protocol: To determine the effect of the compounds on HepG2 cells, we analyzed oxidative status after 24 h of treatment as the pathological level of ROS affects the proper functioning of proteins, lipids, and nucleic acids. The compounds were added to the growth medium at a concentration that corresponds to the total IC50 value. After incubation, the cells were stained with CellROX Deep Red Reagent, which is an oxidative stress indicator. This is a non-fluorescent dye that emits red fluorescent signal upon oxidation by ROS. […] We observed an increase in fluorescence intensity of approximately 22–32% as compared to that of control cells (Figure 5 and Figure S298, ESI).
# HepG2 cells (3.85 × 10^5) were seeded onto 6-well plates, cultured with EMEM media at 37 °C and 5% CO2 saturation, and incubated until 60–70% confluence. Subsequently, the cells were treated for 24 h with the tested compounds at a concentration corresponding to their total IC50 values. […] The level of intracellular ROS generation was analyzed by staining with CellROX™ Deep Red Reagent (ex/em: ~644/665 nm) according to the manufacturer’s protocol (Thermo Fisher Scientific, Waltham, MA, USA), in which fluorescence was triggered in the presence of ROS. […] The cells were analyzed after incubation with the dye, with excitation at […] by the FACSCalibur flow cytometer (Becton Dickinson), and data were analyzed by FlowJo software. […]
Substance,bathochromic shift (calf thymus DNA (ct-DNA)),increase in CellROX fluorescence intensity (ROS) as compared to control (HepG2 cells) [%]
"N-[2-(Dimethylamino)ethyl]-4-[(2-(2-(1,7-dicarba-closo-dodecaborane-1-yl)-ethylamino)ethyl)amino]-1,8-naphthalimide [Compound 55]",1–2 nm,
"N-[2-(Dimethylamino)ethyl]-4-[(6-(2-(1,7-dicarba-closo-dodecaborane-1-yl)-ethylamino)hexyl)amino]-1,8-naphthalimide [Compound 59]",1–2 nm,
"N-[2-N-Pyrrolidinyl)ethyl]-4-[(6-(2-(1,2-dicarba-closo-dodecaborane-1-yl)-ethylamino)hexyl)amino]-1,8-naphthalimide [Compound 60]",,64
"N-[2-N-Pyrrolidinyl)ethyl]-4-[(6-(2-(1,7-dicarba-closo-dodecaborane-1-yl)-ethylamino)hexyl)amino]-1,8-naphthalimide [Compound 61]",,65
